One assay concerns the target T1, STAT6 (Homo sapiens, UniProt P42226).
T1 construct: These cells express endogenous STAT6; host or cells: HeLa LgBiT clone 4.14
T1 sequence (P42226 1-847): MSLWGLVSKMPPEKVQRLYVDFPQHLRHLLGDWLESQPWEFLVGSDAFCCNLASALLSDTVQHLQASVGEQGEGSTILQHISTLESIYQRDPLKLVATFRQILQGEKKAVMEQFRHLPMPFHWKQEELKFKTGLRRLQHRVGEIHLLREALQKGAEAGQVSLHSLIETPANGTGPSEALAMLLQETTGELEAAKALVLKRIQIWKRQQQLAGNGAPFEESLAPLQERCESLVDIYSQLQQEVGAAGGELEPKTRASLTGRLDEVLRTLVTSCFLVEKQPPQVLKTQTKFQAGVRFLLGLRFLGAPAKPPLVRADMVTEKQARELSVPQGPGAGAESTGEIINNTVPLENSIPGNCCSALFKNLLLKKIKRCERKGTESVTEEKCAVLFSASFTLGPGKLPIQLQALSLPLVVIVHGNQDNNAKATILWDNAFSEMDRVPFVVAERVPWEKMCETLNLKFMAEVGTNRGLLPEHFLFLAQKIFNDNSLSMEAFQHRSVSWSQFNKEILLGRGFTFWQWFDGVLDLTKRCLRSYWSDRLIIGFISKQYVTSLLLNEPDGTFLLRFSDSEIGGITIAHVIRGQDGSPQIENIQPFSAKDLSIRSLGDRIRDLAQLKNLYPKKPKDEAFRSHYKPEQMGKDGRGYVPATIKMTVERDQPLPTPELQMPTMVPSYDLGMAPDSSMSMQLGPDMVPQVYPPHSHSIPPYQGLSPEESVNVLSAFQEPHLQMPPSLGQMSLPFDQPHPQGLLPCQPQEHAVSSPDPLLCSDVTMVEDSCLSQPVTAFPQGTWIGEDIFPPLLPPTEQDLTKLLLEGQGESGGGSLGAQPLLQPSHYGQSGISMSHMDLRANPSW
Kind of assay: Stat6 Degrader Assay (HiBiT based, HeLa LgBiT clone 4.14). The conditions noted are these: HeLa LgBiT clone 4.14 HiBiT-STAT6, 4-24 h incubation; values given for compounds with >80% Emax; geometric mean; read-out: STAT6 degradation DC50. In kind it is cell-based. The procedure, abridged:
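HeLa LgBiT clone 4.14 cells with CRISPR HiBiT-tagged endogenous STAT6, 5000 cells/well, compound dosed then incubated 4-24 h at 37° C, 5% CO2. Nano-Glo substrate added, 0.5 h, luminescence read as non-degraded STAT6. Terfenadine 50 μM (cell kill) defines 100% degradation.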

The subject of assay [1] is Eotaxin-3 release in human whole blood stimulated with IL-4. Description: Human Whole Blood Eotaxin-3 Assay (IL-4 stimulated eotaxin-3 release). In kind it is cell-based. The settings on record: IL-4 stimulation, 48 h, values given for compounds with >80% Emax, geometric mean. An outline of the steps:
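Lithium-heparin human whole blood preincubated 2 h at 37° C with 4-fold serially diluted compounds (0.5% DMSO), then stimulated with recombinant human IL-4 ([…]) for 48 h. Eotaxin-3 (CCL26) in supernatant quantified by MSD immunoassay.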

In the case of `Cc1cc(C(=O)N2CCC(CN3CCN(Cc4ccc5c(c4)C4(CC4)C(=O)N5C4CCC(=O)NC4=O)C[C@@H]3C)CC2)cc(F)c1C1=CCN([C@@H](C)c2cc3c(-n4cc(F)c(N)c(F)c4=O)ccnc3n2C)CC1` (stereo partly drawn) [Example 3u121, 3-(5′-(((S)-4-((1-(4-(1-((S)-1-(4-(4-amino-3,5-difluoro-2-oxopyridin-1 (2H)-yl)-1-methyl-1H-pyrrolo[2,3-b]pyridin-2-yl)ethyl)-1,2,3,6-tetrahydropyridin-4-yl)-3-fluoro-5-methyl-benzoyl)piperidin-4-yl)methyl)-3-methylpiperazin-1-yl)methyl)-2′-oxospiro[cyclopropane-1,3′-indolin]-1′-yl)piperidine-2,6-dione], on STAT6, the DC50 turned out to be 2.5 nM. In assay [1], this compound yielded an EC50 of 2 nM.
For `CNc1ccn(-c2ccnc3c2cc([C@H](C)N2CC=C(c4c(C)cc(C(=O)N5CCC(CN6CCN(Cc7ccc8c(c7)n(C)c(=O)n8C7CCC(=O)NC7=O)C[C@@H]6C)CC5)cc4F)CC2)n3C)c(=O)c1` (stereo partly drawn) [Example 3u32, 3-(5-(((S)-4-((1-(3-fluoro-5-methyl-4-(1-((S)-1-(1-methyl-4-(4-(methylamino)-2-oxopyridin-1 (2H)-yl)-1H-pyrrolo[2,3-b]pyridin-2-yl)ethyl)-1,2,3,6-tetrahydropyridin-4-yl)benzoyl)-piperidin-4-yl)methyl)-3-methylpiperazin-1-yl)methyl)-3-methyl-2-oxo-2,3-dihydro-1H-benzo[d]-imidazol-1-yl)piperidine-2,6-dione] the same measures were 0.2 nM and 0.3 nM.
In the same order, the values of `CNc1cc(=O)n(-c2ccnc3c2cc([C@H](C)N2CC=C(c4c(C)cc(C(=O)N(C)c5ccc(C6CCN(Cc7ccc8c(c7)C7(CC7)C(=O)N8C7CCC(=O)NC7=O)CC6)cc5)cc4F)CC2)n3C)cc1F` (stereo partly drawn) [Example 3u236, N-(4-(1-((1′-(2,6-dioxopiperidin-3-yl)-2′-oxospiro[cyclopropane-1,3′-indolin]-5′-yl)methyl)piperidin-4-yl)phenyl)-3-fluoro-4-(1-((S)-1-(4-(5-fluoro-4-(methylamino)-2-oxopyridin-1 (2H)-yl)-1-methyl-1H-pyrrolo[2,3-b]pyridin-2-yl)ethyl)-1,2,3,6-tetrahydropyridin-4-yl)-N,5-dimethylbenzamide] are 0.1 nM and 0.9 nM.
In the same order, the values of `CNc1cc(=O)n(-c2ccnc3c2cc(CN2CC=C(c4c(F)cc(C(=O)N5CCC(CN6CCN(Cc7ccc8c(c7)n(C7CC7)c(=O)n8[C@@H]7CCC(=O)NC7=O)C[C@@H]6C)CC5)cc4F)CC2)n3C)cc1F` (single isomer, unassigned) [Example 3u215] are 3.5 nM and 5.6 nM.
For the compound `CNc1cc(=O)n(-c2ccnc3c2cc(CN2CCC(c4c(F)cc(C(=O)N5CCC(CN6CCN(Cc7ccc8c(c7)C(C)(C)C(=O)N8[C@@H]7CCC(=O)NC7=O)CC6)CC5)cc4F)CC2)n3C)cc1F` (single isomer, unassigned) [Example 3u59], the DC50 on STAT6 was found to be 11.4 nM. This compound registered an EC50 in assay [1] of 25.8 nM.
Take `CNc1cc(=O)n(-c2ccnc3c2cc(CN2CCC(c4c(F)cc(C(=O)N5CCC(CN6CCN(Cc7ccc8c(c7)C7(CC7)C(=O)N8[C@@H]7CCC(=O)NC7=O)C[C@@H]6C)CC5)cc4F)CC2)n3C)cc1F` (single isomer, unassigned) [Example 3u221]: the DC50 at STAT6 was found to be 1.9 nM. Further, the EC50 in assay [1] turned out to be 4.5 nM.
On to `CNc1ccn(-c2ccnc3c2cc([C@H](C)N2CC=C(c4c(C)cc(C(=O)N5CCC(CN6CCN(Cc7ccc8c(c7)C7(CC7)C(=O)N8C7CCC(=O)NC7=O)C[C@@H]6C)CC5)cc4F)CC2)n3C)c(=O)n1` (stereo partly drawn) [Example 3u125, 3-(5′-(((S)-4-((1-(3-fluoro-5-methyl-4-(1-((S)-1-(1-methyl-4-(4-(methylamino)-2-oxopyrimidin-1 (2H)-yl)-1H-pyrrolo[2,3-b]pyridin-2-yl)ethyl)-1,2,3,6-tetrahydropyridin-4-yl)benzoyl)piperidin-4-yl)methyl)-3-methylpiperazin-1-yl)methyl)-2′-oxospiro[cyclopropane-1,3′-indolin]-1′-yl)piperidine-2,6-dione], for which the DC50 at STAT6 stood at 0.8 nM. The same compound displayed an EC50 in assay [1] of 0.6 nM.

Usually DC50 stands for the concentration at which degradation of the target reaches its halfway point. Broadly, the EC50 is the concentration at which the effect is half-maximal. A low value points to greater potency.

The record behind these values is US20250320206A1, “STAT6 DEGRADERS” (Gilead Sciences, Inc., priority 2024, published 2025).
